Assay results as given in US8188100B2, “Adenosine derivatives as A2A receptor agonists” (Novartis AG, priority 2006, dated 2012).

Biological target: adenosine A2A receptor (Homo sapiens, UniProt P29274)
Test: adenosine A2A receptor agonist assay (method of Murphree et al.)
Format: binding
Settings: method described by Murphree et al., Mol Pharmacol, Vol. 61, pp. 455-462 (2002)
Source text: Compounds of formula (I) and their pharmaceutically acceptable salts are useful as pharmaceuticals. In particular, they activate the adenosine A2A receptor, i.e., they act as A2A receptor agonists.

Chain of adenosine A2A receptor (P29274 whole entry): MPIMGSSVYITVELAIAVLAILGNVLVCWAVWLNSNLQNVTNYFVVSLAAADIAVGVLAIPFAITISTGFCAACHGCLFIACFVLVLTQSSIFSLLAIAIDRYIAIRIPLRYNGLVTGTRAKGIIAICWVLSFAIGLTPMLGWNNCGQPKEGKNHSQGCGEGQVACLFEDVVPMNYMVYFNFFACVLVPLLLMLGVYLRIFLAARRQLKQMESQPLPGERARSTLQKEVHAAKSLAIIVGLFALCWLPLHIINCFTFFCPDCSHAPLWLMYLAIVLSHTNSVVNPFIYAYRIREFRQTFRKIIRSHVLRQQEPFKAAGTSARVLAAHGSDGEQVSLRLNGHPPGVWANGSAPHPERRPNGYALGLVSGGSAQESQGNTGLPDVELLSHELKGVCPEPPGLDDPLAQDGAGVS

Ki: 760 nM
SMILES: CCC(=O)N[C@H]1C[C@@H](n2cnc3c(NCC(c4ccccc4)c4ccccc4)nc(N4CC[C@@H](Nc5nc(Cl)nc6c5ncn6[C@@H]5C[C@H](NC(=O)CC)[C@@H](O)[C@H]5O)C4)nc32)[C@H](O)[C@@H]1O [Example 1, {(1S,2R,3S,4R)-4-[2-{(R)-3-[2-Chloro-9-((1R,2S,3R,4S)-2,3-dihydroxy-4-propionylamino-cyclopentyl)-9H-purin-6-ylamino]-pyrrolidin-1-yl}-6-(2,2-diphenyl-ethylamino)-purin-9-yl]-2,3-dihydroxy-cyclopentyl}-propionamide]
